What was measured:
[1] = system: New Ps isolate from sediment; test: Growth of new Ps isolate from sediment in the presence of tetracycline or tetracycline-Fe2+ complex; format: cell-based, Pseudomonas; settings: experiment C
Description: (§1) Individual components were tested for inhibition or enhancement of Pseudomonas isolated from the site.

[2] = system: Pseudomonas isolate (Ps isolate, Susquehanna flats); test: Growth of Pseudomonas isolate in TSB in the presence of tetracycline, metal cations or tetracycline metal complexes; format: cell-based; settings: for Ps isolate growth (S/I/+4): experiment D
Description: as §1

Row | Molecule | Ps isolate growth (R/I/S) ([1]; 8 μg/mL) | Ps isolate growth (R/I/S) ([1]; 40 μg/mL) | Ps isolate growth (R/I/S) ([1]; 100 μg/mL) | Ps isolate growth ([2]; experiment A, metal cation alone, 1 mL TSB + 4 μl (4 μg/mL)) | Ps isolate growth (S/I/+4) ([2]; 1 μg/mL) | Ps isolate growth (S/I/+4) ([2]; 4 μg/mL) | Ps isolate growth (S/I/+4) ([2]; 8 μg/mL) | Ps isolate growth (S/I/+4) ([2]; metal cation alone, concentration not given)
1 | CN(C)[C@@H]1C(O)=C(C(N)=O)C(=O)[C@@]2(O)C(O)=C3C(=O)c4c(O)cccc4[C@@](C)(O)[C@H]3C[C@@H]12 [tetracycline] | R | R | R |  |  |  |  | 
2 | copper acetate [Cu^2+] |  |  |  | Growth | +4 | I | S (no growth) | +4
